Source: PMC4856055 (Journal of medicinal chemistry, 2015)
Several values for one entry are separate records, joined by “and”; a condition that tells them apart may be missing. Identical values can stand only once. Like-named read-outs stand apart in the source and are kept apart here.

Legend:
[1] = tested on: PSMA+ PC3 PIP and PSMA– PC3 flu tumor xenografts; experiment: Small animal PET or PET/CT imaging of tumor bearing mice; format: in vivo
[2] = tested on: PSMA+ PC3 PIP and PSMA– PC3 flu xenografts; format: in vivo, mice; conditions: for PIP:blood ratio / PIP:flu ratio / PIP:kidney ratio / PIP:muscle ratio / biodistribution, PC-3 PIP tumor / biodistribution, PC-3 flu tumor / biodistribution, bladder / biodistribution, blood / biodistribution, bone / biodistribution, fat / biodistribution, heart / biodistribution, kidney / biodistribution, large intestine / biodistribution, liver / biodistribution, lung / biodistribution, muscle / biodistribution, pancreas / biodistribution, small intestine / biodistribution, spleen / biodistribution, stomach: tumor bearing mice
PSMA = PSMA (Homo sapiens, UniProt Q04609); conditions: ref 13d; cited from earlier work
Chain of PSMA (Q04609 whole entry): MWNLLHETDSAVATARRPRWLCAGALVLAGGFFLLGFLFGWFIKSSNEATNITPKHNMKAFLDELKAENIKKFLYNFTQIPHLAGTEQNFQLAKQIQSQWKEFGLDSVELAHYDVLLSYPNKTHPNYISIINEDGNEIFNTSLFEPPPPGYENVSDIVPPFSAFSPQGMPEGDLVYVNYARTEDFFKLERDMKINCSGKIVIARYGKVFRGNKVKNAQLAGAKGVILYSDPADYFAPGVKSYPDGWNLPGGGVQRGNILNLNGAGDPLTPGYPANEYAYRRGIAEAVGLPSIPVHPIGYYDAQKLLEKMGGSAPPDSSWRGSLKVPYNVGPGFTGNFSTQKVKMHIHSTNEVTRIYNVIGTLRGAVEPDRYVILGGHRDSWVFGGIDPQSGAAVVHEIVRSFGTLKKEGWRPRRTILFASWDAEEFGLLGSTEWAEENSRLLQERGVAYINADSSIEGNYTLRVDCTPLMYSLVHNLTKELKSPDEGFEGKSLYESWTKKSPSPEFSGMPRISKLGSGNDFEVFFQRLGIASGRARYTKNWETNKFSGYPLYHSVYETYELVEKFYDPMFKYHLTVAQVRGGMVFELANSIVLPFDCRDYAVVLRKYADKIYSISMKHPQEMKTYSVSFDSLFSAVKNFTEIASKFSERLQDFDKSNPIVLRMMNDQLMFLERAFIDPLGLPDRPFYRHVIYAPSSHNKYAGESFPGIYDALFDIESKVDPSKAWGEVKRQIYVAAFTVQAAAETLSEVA

## O=C(O)CCC(OC(=O)NC(CCCCNC(=O)c1ccc(I)cc1[18F])C(=O)O)C(=O)O (stereo not drawn) [[^18F]24, 4-iodo-2-[^18F]fluorobenzoyllysine OPA carbamate]
[1]; male SCID mice with PSMA+ PC3 PIP and PSMA– PC3 flu xenografts
  PSMA+ PC3 PIP tumor uptake on small animal PET imaging: Intense and selective radiotracer uptake
[1]; mouse, in vivo
  uptake in salivary glands on imaging: Neither [^18F]23 nor [^18F]24 demonstrated any uptake in salivary glands
[2]; 0.5 h postinjection
  PIP:blood ratio: 5.6
  PIP:flu ratio: 9.1
  PIP:kidney ratio: 0.5
  PIP:muscle ratio: 47 and 46.6
  biodistribution, PC-3 PIP tumor: 45 % ID/g and 44.7 ± 0.62 % ID/g
  biodistribution, PC-3 flu tumor: 4.91 ± 1.10 % ID/g
  biodistribution, bladder: 3.89 ± 0.40 % ID/g
  biodistribution, blood: 7.94 ± 0.99 % ID/g
  biodistribution, bone: 1.52 ± 0.19 % ID/g
  biodistribution, fat: 1.65 ± 0.67 % ID/g
  biodistribution, heart: 2.27 ± 0.32 % ID/g
  biodistribution, kidney: 94.4 ± 8.22 % ID/g
  biodistribution, large intestine: 1.83 ± 0.16 % ID/g
  biodistribution, liver: 16.6 ± 1.61 % ID/g
  biodistribution, lung: 5.13 ± 0.29 % ID/g
  biodistribution, muscle: 0.96 ± 0.21 % ID/g
  biodistribution, pancreas: 1.78 ± 0.15 % ID/g
  biodistribution, small intestine: 1.37 ± 0.06 % ID/g
  biodistribution, spleen: 14.6 ± 4.41 % ID/g
  biodistribution, stomach: 1.80 ± 0.08 % ID/g
[2]; 1 h postinjection
  PIP:blood ratio: 20 and 19.7
  PIP:flu ratio: 25.4
  PIP:kidney ratio: 0.5
  PIP:muscle ratio: 100 and 100.2
  biodistribution, PC-3 PIP tumor: 57.1 ± 19.55 % ID/g
  biodistribution, PC-3 flu tumor: 2.25 ± 1.62 % ID/g
  biodistribution, bladder: 2.19 ± 0.22 % ID/g
  biodistribution, blood: 2.90 ± 1.98 % ID/g
  biodistribution, bone: 0.78 ± 0.14 % ID/g
  biodistribution, fat: 0.88 ± 0.68 % ID/g
  biodistribution, heart: 1.23 ± 0.22 % ID/g
  biodistribution, kidney: 122 ± 21.9 % ID/g
  biodistribution, large intestine: 0.78 ± 0.13 % ID/g
  biodistribution, liver: 15.5 ± 2.00 % ID/g
  biodistribution, lung: 3.31 ± 0.41 % ID/g
  biodistribution, muscle: 0.57 ± 0.06 % ID/g
  biodistribution, pancreas: 1.23 ± 0.29 % ID/g
  biodistribution, small intestine: 1.83 ± 1.12 % ID/g
  biodistribution, spleen: 7.81 ± 4.22 % ID/g
  biodistribution, stomach: 0.99 ± 0.17 % ID/g
[2]; 2 h postinjection
  PIP:blood ratio: 66
  PIP:flu ratio: 71.1
  PIP:kidney ratio: 0.7
  PIP:muscle ratio: 250 and 250.5
  biodistribution, PC-3 PIP tumor: 85.2 ± 5.44 % ID/g
  biodistribution, PC-3 flu tumor: 1.20 ± 0.31 % ID/g
  biodistribution, bladder: 7.48 ± 0.68 % ID/g
  biodistribution, blood: 1.29 ± 0.87 % ID/g
  biodistribution, bone: 0.36 ± 0.02 % ID/g
  biodistribution, fat: 1.12 ± 0.43 % ID/g
  biodistribution, heart: 0.57 ± 0.09 % ID/g
  biodistribution, kidney: 115 ± 13.2 % ID/g
  biodistribution, large intestine: 0.55 ± 0.01 % ID/g
  biodistribution, liver: 8.99 ± 0.55 % ID/g
  biodistribution, lung: 1.91 ± 0.29 % ID/g
  biodistribution, muscle: 0.34 ± 0.07 % ID/g
  biodistribution, pancreas: 0.92 ± 0.40 % ID/g
  biodistribution, small intestine: 1.19 ± 0.61 % ID/g
  biodistribution, spleen: 6.78 ± 1.25 % ID/g
  biodistribution, stomach: 0.51 ± 0.07 % ID/g
[2]; 4 h postinjection
  PIP:blood ratio: 156 and 155.8
  PIP:flu ratio: 231.1
  PIP:kidney ratio: 1.3
  PIP:muscle ratio: 743
  biodistribution, PC-3 PIP tumor: 97 % ID/g and 96.6 ± 18.7 % ID/g
  biodistribution, PC-3 flu tumor: 0.42 ± 0.07 % ID/g
  biodistribution, bladder: 2.03 ± 1.09 % ID/g
  biodistribution, blood: 0.62 ± 0.10 % ID/g
  biodistribution, bone: 0.18 ± 0.04 % ID/g
  biodistribution, fat: 0.58 ± 0.17 % ID/g
  biodistribution, heart: 0.24 ± 0.04 % ID/g
  biodistribution, kidney: 74.4 ± 13.8 % ID/g
  biodistribution, large intestine: 0.96 ± 0.25 % ID/g
  biodistribution, liver: 2.77 ± 0.49 % ID/g
  biodistribution, lung: 0.94 ± 0.06 % ID/g
  biodistribution, muscle: 0.13 ± 0.04 % ID/g
  biodistribution, pancreas: 0.26 ± 0.06 % ID/g
  biodistribution, small intestine: 0.24 ± 0.09 % ID/g
  biodistribution, spleen: 3.49 ± 0.86 % ID/g
  biodistribution, stomach: 0.19 ± 0.03 % ID/g
[2]; at 2–4 h
  tumor/kidney ratio: approximately 1

## O=C(O)CC[C@H](NC(=O)N[C@@H](CCCCNC(=O)c1ccc(F)cc1)C(=O)O)C(=O)O [compound 9]
PSMA
  Ki: 0.25 nM
